# Where two headings read alike, the source gives them in different places.
# Tests used:
# Assay in all cases: microbe, parasite or virus in culture
# S. aureus 29213 = format: cell-based, Staphylococcus aureus; settings: MHB, 37 °C 24 h, peptides 0.5-128 μM, lowest concentration inhibiting 95% of growth, three independent experiments, read-out: MICs, S. aureus 29213
# Procedure: (§1) The peptide antimicrobial activity was determined according to the Clinical and Laboratory Standards Institute method, with modifications. Bacteria concentration was measured by ultraviolet spectrophotometer, and fungi concentration was confirmed by McMillan’s turbidimetric method, which compared the fungi solution with the standard McFarland tube in front of the horizontal line on the paper with the naked eye. Because the light has different refract in different liquids. The standard solution is composed of sulfuric acid and barium chloride, which is equivalent to 1*10^8 CFU fungi. After cultivation, the growth of fungi and bacteria was measured by TECAN automatic enzyme label instrument. Briefly, bacterial cells were cultured in MHB until logarithmic phase, yeast colonies cultured in Yeast Peptone Dextrose Agar (YPDA) were picked and diluted in RPMI 1640 growth medium buffered with morpholine propane sulfonic acid (MOPS), and then 50 μL of bacterial or fungi cell solution (0.5–1 × 10^4 CFU/mL) was added to each well of sterile 96-well plates. Each well contained 50 μL of AMPs dissolved in BSA; the final concentrations of the peptides ranged from 0.5 to 128 μM. The lowest concentration of peptide with no microbial growth being observed were measured after incubation at 37 °C for 24 h for bacteria or at 28 °C for 48 h for fungi. Broth with microbial cells and un-inoculated broth were used as positive control and negative controls, respectively.
# L. rhamnosus 1.0385 = format: cell-based, Lactobacillus rhamnosus; settings: 37 °C 24 h, peptides 0.5-128 μM, lowest concentration inhibiting 95% of growth, three independent experiments, read-out: MICs, L. rhamnosus 1.0385
# Procedure: as §1
# L. rhamnosus 1.0911 = format: cell-based, Lactobacillus rhamnosus; settings: 37 °C 24 h, peptides 0.5-128 μM, lowest concentration inhibiting 95% of growth, three independent experiments, read-out: MICs, L. rhamnosus 1.0911
# Procedure: as §1
# S. thermophilus YM-C = format: cell-based, Streptococcus thermophiles; settings: 37 °C 24 h, peptides 0.5-128 μM, lowest concentration inhibiting 95% of growth, three independent experiments, read-out: MICs, S. thermophilus YM-C
# Procedure: as §1
# [1] = system: C. albicans Isolated from Alveolar Fluid; format: cell-based, Candida albicans; settings: RPMI 1640 buffered with MOPS, 28 °C 48 h, 0.5-128 μM, read-out: MICs, C. albicans Isolated from Alveolar Fluid
# Procedure: as §1
# C. albicans SP3902 = format: cell-based, Candida albicans; settings: clinical isolate, RPMI 1640 buffered with MOPS, 28 °C 48 h, 0.5-128 μM, read-out: MICs, C. albicans SP3902
# Procedure: as §1
# C. albicans SP3903 = format: cell-based, Candida albicans; settings: clinical isolate, RPMI 1640 buffered with MOPS, 28 °C 48 h, 0.5-128 μM, read-out: MICs, C. albicans SP3903
# Procedure: as §1
# C. albicans SP3937 = format: cell-based, Candida albicans; settings: clinical isolate, RPMI 1640 buffered with MOPS, 28 °C 48 h, 0.5-128 μM, read-out: MICs, C. albicans SP3937
# Procedure: as §1
# C. albicans cgmcc 2.2086 = format: cell-based, Candida albicans; settings: RPMI 1640 buffered with MOPS, 28 °C 48 h, 0.5-128 μM, read-out: MICs, C. albicans cgmcc 2.2086
# Procedure: as §1
# [2] = system: Fluconazole-resistant C. albicans 56214; settings: for MIC: Candida albicans, 48 h, read-out: MICs, C. albicans 56214
# Procedure: as §1, with “Bacteria concentration was measured by ultraviolet spectrophotometer, and fungi concentration was confirmed by McMillan’s turbidimetric method, which compared the fungi solution with the standard McFarland tube in front of the horizontal line on the paper with the naked eye.” left out, “The lowest concentration of peptide with no microbial growth being observed were measured after incubation at 37 °C for 24 h for bacteria or at 28 °C for 48 h for fungi.” left out
# C.albicans cgmcc 2.2086 = format: cell-based, Candida albicans; settings: C.albicans cgmcc 2.2086
# Procedure: as §1, with “The lowest concentration of peptide with no microbial growth being observed were measured after incubation at 37 °C for 24 h for bacteria or at 28 °C for 48 h for fungi.” left out
# The salt and acid sensitivities of the peptides were measured using with modified method to test MIC values; tested peptides were incubated in the presence of different final concentrations of physiological salts. The subsequent steps were consistent with the MIC determination protocol.
# [3] = Lacticaseibacillus rhamnosus, 1.0385
# [4] = Lacticaseibacillus rhamnosus, 1.0911
# [5] = Candida albicans, CGMCC2, no added salt, read-out: MIC, Control
# [6] = Candida albicans, CGMCC2, pH = 6 (acidic conditions), read-out: MIC in acid environment, pH = 6
# [7] = Candida albicans, CGMCC2, physiological concentration of FeCl3, read-out: MIC in the presence of FeCl3
# [8] = Candida albicans, CGMCC2, physiological concentration of KCl, read-out: MIC in the presence of KCl
# [9] = Candida albicans, CGMCC2, physiological concentration of MgCl2, read-out: MIC in the presence of MgCl2
# [10] = Candida albicans, CGMCC2, physiological concentration of NH4Cl, read-out: MIC in the presence of NH4Cl
# [11] = Candida albicans, CGMCC2, physiological concentration of NaCl (Na+), read-out: MIC in the presence of NaCl
# [12] = Candida albicans, CGMCC2, physiological concentration of ZnCl2, read-out: MIC in the presence of ZnCl2
SMILES,"MIC (S. aureus 29213; Staphylococcus aureus, 29213) [µM]",MIC (L. rhamnosus 1.0385; [3]) [µM],MIC (L. rhamnosus 1.0911; [4]) [µM],MIC (S. thermophilus YM-C; Streptococcus thermophilus) [µM],MIC ([1]; Candida albicans) [µM],"MIC (C. albicans SP3902; Candida albicans, SP3902) [µM]","MIC (C. albicans SP3903; Candida albicans, SP3903) [µM]","MIC (C. albicans SP3937; Candida albicans, SP3937) [µM]","MIC (C. albicans cgmcc 2.2086; Candida albicans, CGMCC2) [µM]",MIC [2] [µM],MIC (C.albicans cgmcc 2.2086; [5]) [µM],MIC (C.albicans cgmcc 2.2086; [6]) [µM],MIC (C.albicans cgmcc 2.2086; [7]) [µM],MIC (C.albicans cgmcc 2.2086; [8]) [µM],MIC (C.albicans cgmcc 2.2086; [9]) [µM],MIC (C.albicans cgmcc 2.2086; [10]) [µM],MIC (C.albicans cgmcc 2.2086; [11]) [µM],MIC (C.albicans cgmcc 2.2086; [12]) [µM],other results
"CC[C@H](C)[C@H](NC(=O)CN)C(=O)NCC(=O)N[C@@H](C)C(=O)N[C@H](C(=O)N[C@@H](CC(C)C)C(=O)N[C@@H](CCCCN)C(=O)N[C@H](C(=O)N[C@@H](CC(C)C)C(=O)N[C@H](C(=O)N[C@H](C(=O)NCC(=O)N[C@@H](CC(C)C)C(=O)N1CCC[C@H]1C(=O)N[C@@H](C)C(=O)N[C@@H](CC(C)C)C(=O)N[C@H](C(=O)N[C@@H](CO)C(=O)N[C@@H](Cc1c[nH]c2ccccc12)C(=O)N[C@H](C(=O)N[C@@H](CCCCN)C(=O)N[C@@H](CCCNC(=N)N)C(=O)N[C@@H](CCCCN)C(=O)N[C@@H](CCCNC(=N)N)C(=O)N[C@@H](CCC(N)=O)C(=O)N[C@@H](CCC(N)=O)C(N)=O)[C@@H](C)CC)[C@@H](C)CC)[C@@H](C)O)[C@@H](C)O)C(C)C)C(C)C [Melittin, reference compound]",–,–,–,–,–,–,–,–,–,–,–,–,–,–,–,–,–,–,"MIC (S. aureus 29213): 2 µM; MIC (L. rhamnosus 1.0385): >128 µM; MIC (L. rhamnosus 1.0911): >128 µM; MIC (S. thermophilus YM-C): >128 µM; MIC [1]: 4 µM; MIC (C. albicans SP3902): 4 µM; MIC (C. albicans SP3903): 2 µM; MIC (C. albicans SP3937): 4 µM; MIC (C. albicans cgmcc 2.2086): 4 µM; MICs, C. albicans 56214 ([2]; fluconazole-resistant strain, RPMI 1640 buffered with MOPS, 28 °C 48 h, 0.5-128 μM): 2 µM; MIC (C.albicans cgmcc 2.2086; no added salt, read-out: MIC, Control): 4 µM; MIC (C.albicans cgmcc 2.2086; pH = 6 (acidic conditions), read-out: MIC in acid environment, pH = 6): 4 µM; MIC (C.albicans cgmcc 2.2086; physiological concentration of FeCl3, read-out: MIC in the presence of FeCl3): 4 µM; MIC (C.albicans cgmcc 2.2086; physiological concentration of KCl, read-out: MIC in the presence of KCl): 4 µM; MIC (C.albicans cgmcc 2.2086; physiological concentration of MgCl2, read-out: MIC in the presence of MgCl2): 8 µM; MIC (C.albicans cgmcc 2.2086; physiological concentration of NaCl (Na+), read-out: MIC in the presence of NaCl): 8 µM; MIC (C.albicans cgmcc 2.2086; physiological concentration of ZnCl2, read-out: MIC in the presence of ZnCl2): 4 µM"
"C[C@@H]1[C@H](O)[C@@H](C)/C=C/C=C/C=C/C=C/C=C/C=C/C=C/[C@H](O[C@@H]2O[C@H](C)[C@@H](O)[C@H](N)[C@@H]2O)C[C@@H]2O[C@](O)(C[C@@H](O)C[C@@H](O)[C@H](O)CC[C@@H](O)C[C@@H](O)CC(=O)O[C@H]1C)C[C@H](O)[C@H]2C(=O)O [Amphotericin B, reference compound]",> 128,> 128,> 128,> 128,1,0.5,0.5,0.5,1,1,1,1,1,1,1,1,2,1,–
"OC(Cn1cncn1)(Cn1cncn1)c1ccc(F)cc1F [Fluconazole, reference compound]",> 128,> 128,> 128,> 128,2,16,32,16,1,> 128,1,1,1,1,1,1,2,1,–

# From publication PMC8348200, “Selective Antifungal Activity and Fungal Biofilm Inhibition of Tryptophan Center Symmetrical Short Peptide” (International Journal of Molecular Sciences, 2021)
